Results from paper PMC3171632 (2011).

Legend:
[1] = target: T1, LuxS (S-ribosylhomocysteinase) (Bacillus subtilis, UniProt O34667); assay: LuxS activity assay with SRH and DTNB at […] nm, […] min preincubation; type: biochemical
T1 sequence (O34667 1-157): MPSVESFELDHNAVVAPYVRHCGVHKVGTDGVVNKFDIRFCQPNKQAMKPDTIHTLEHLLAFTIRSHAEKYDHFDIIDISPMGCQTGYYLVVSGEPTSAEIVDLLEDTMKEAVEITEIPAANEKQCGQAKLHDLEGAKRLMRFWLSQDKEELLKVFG

[2] = target: T1, LuxS (S-ribosylhomocysteinase); assay: LuxS activity assay with SRH and DTNB at […] nm; type: biochemical

Row | Compound | Ki [1] | Ki [2]
1 | N[C@@H](CCSC[C@H]1NC(O)[C@H](O)[C@@H]1O)C(=O)O (mixture of isomers) [compound 23, S-(4-Amino-4,5-dideoxy-α/β-D-ribofuranos-5-yl)-L-homocysteine] | 3.5 µM | 
2 | N[C@@H](CCSC[C@H]1NC[C@H](O)[C@@H]1O)C(=O)O [compound 12, S-(1-Amino-1,4-anhydro-1,5-dideoxy-D-ribitol-5-yl)-L-homocysteine] |  | 48 µM
3 | N[C@@H](CCSC[C@H]1NC(=O)[C@H](O)[C@@H]1O)C(=O)O [compound 21, S-(4-Amino-4,5-dideoxy-D-ribono-1,4-lactam-5-yl)-L-homocysteine] |  | 37 µM
